From patent US20200392079A1, “Compound, Photopolymerization Initiator Containing Said Compound, and Photosensitive Resin Composition Containing Said Photopolymerization Initiator” (Nippon Kayaku Kabushiki Kaisha, priority 2018, published 2020)

Experiment: Solubility evaluation experiment (time required for dissolving in solvent)
Assay type: physicochemical
Experimental: After the components were mixed in a glass container in accordance with the formulation amounts (parts by mass) listed in Table 1, the solution was placed on a hot plate at 50° C. and stirred with a glass bar. The time (minute) required for dissolving was measured to evaluate the solubility.

[1] = 0.50 parts initiator in 1.00 parts (D-1) Cyclopentanon, hot plate 50° C., stirred with glass bar
[2] = 0.50 parts initiator in (D-2) 1-methoxy-2-propanol (PGME), 1.00 parts (1.43 parts for C-5), 50° C.
[3] = 0.50 parts initiator in (D-3) Polyethylene gylcol monomethylether acetate (PGMEA), 1.00-1.67 parts, 50° C.
[4] = 0.50 parts initiator in (D-4) 3-betoxymethanol, 1.11 parts (>5 parts for C-5), 50° C.

Stirring time (time required for dissolving) [1] [min] | Stirring time (time required for dissolving) [2] [min] | Stirring time (time required for dissolving) [3] [min] | SMILES | Stirring time (time required for dissolving) [4] [min]
10 | 19 | 25 | C=C(C)C(=O)OCCNC(=O)OCC(O)(C(=O)c1ccc(SC)cc1)c1ccc(SC)cc1 (centres unmarked) [Initiator C-1] | 40
15 | 12 | 20 | C=CC(=O)OCCNC(=O)OCC(O)(C(=O)c1ccc(SC)cc1)c1ccc(SC)cc1 (centres unmarked) [Initiator C-2] | 40
